Measured values published in article PMC10406430 (Neuro-Oncology Advances, 2023).
Read-outs that look alike come from different tables or passages of the source. Marks after values point to notes of the source that are not given here.

What was measured:
[1] = test system: cytochrome P450 isozymes (CYP) 2C19, 2D6, and 3A4; assay: In vitro studies of hepatic metabolism pathways; type: in vitro ADME; conditions: preliminary evidence from in vitro studies (unpublished); CYP 2C19, 2D6, 3A4
[2] = test system: intracranial models in rodents; conditions: syngeneic and xenograft models, single agent and in combination with TMZ; cited from earlier work
[3] = Plasma pharmacokinetics of PAC-1 and TMZ (LC-MS/MS, non-compartmental analysis); type: in vivo, human; conditions: for AUC(0-inf) / CL/F / Cmax / Tmax / half-life: human, plasma, po; for AUC(0-inf): read-out: AUC0-∞, geometric mean (geometric CV%); for CL/F: read-out: CL/F, geometric mean (geometric CV%) (converted); for Cmax: read-out: Cmax, geometric mean (geometric CV%); for Tmax: read-out: Tmax, median (range); for half-life: read-out: t1/2-λ, geometric mean (geometric CV%) (converted)
Procedure: Pharmacokinetics (PK) were assessed in each dose cohort for PAC-1 following doses administered on days 7 (without TMZ) and 12 (with TMZ) of the first cycle and TMZ on day 12 of cycle 1. Both drugs were administered under fasting conditions in the morning for PAC-1 and morning or evening for TMZ. To facilitate the PK study and amplify any PK interaction between drugs, the administration of TMZ was standardized to occur in the morning on cycle 1, day 12 two hours before PAC-1. Plasma samples were collected on the mornings of days 7 and 12 of cycle 1 prior to oral ingestion of TMZ (day 12 only), 1 hour (day 12) or immediately (day 7) before administration of PAC-1 and at 0.5, 1, 2, 4, 6, 8, 10, and 24 hours after ingestion of PAC-1 (both days). The PAC-1 and TMZ concentrations in plasma were determined by validated high-performance liquid chromatography and tandem mass spectrometry (LC-MS/MS) assays. Non-compartmental analysis of the PAC-1 and TMZ plasma concentration-time data was performed using WinNonlin version 8.1 (Certara. L.P., Princeton, NJ). The analysis occurred at steady state for PAC-1 and non-steady state conditions for TMZ. Parameters included: maximum plasma concentration (Cmax), time at Cmax (Tmax), minimum plasma concentration at steady-state (Css,min), area under the PAC-1 plasma concentration-time curve over the steady-state dosing interval (AUC0-τ,ss), area under the TMZ plasma concentration-time curve from time zero to infinity (AUC0-∞), oral clearance (CL/F), volume of distribution (V/F), and terminal phase half-life (t1/2).
The PK parameters were logarithmically (natural) transformed and Css-max, Css-min, and AUC0-τ,ss normalized for a 500 mg dose across dose groups for the analysis by multiplying the parameter by the quotient of 500 mg divided by the actual dose. […] Lack of interaction was concluded when the 90% CI for the ratio was contained within the conventional bioequivalence range of 0.80 to 1.25.

[4] = test system: systemic solid tumors; conditions: cited from earlier work
[5] = set-up: method as in earlier work; conditions: animal studies and a single clinical trial; ref 1-3 (supplement list); cited from earlier work
[6] = test system: glioma; conditions: PAC-1 in combination with TMZ and radiation; cited from earlier work
[7] = mice; consistent with cLogBB prediction models; cited from earlier work
[8] = test system: human glioma cell lines; conditions: single agent and in combination with TMZ; cited from earlier work
[9] = test system: P-glycoprotein efflux pump; conditions: cited from earlier work
[10] = PAC-1 375 mg/day oral, Cycle 1 Day 7 (alone)
[11] = PAC-1 375 mg/day oral, Cycle 1 Day 12 (with TMZ)
[12] = PAC-1 500 mg/day oral, Cycle 1 Day 7 (alone)
[13] = PAC-1 500 mg/day oral, Cycle 1 Day 12 (with TMZ)
[14] = PAC-1 625 mg/day oral, Cycle 1 Day 7 (alone)
[15] = PAC-1 625 mg/day oral, Cycle 1 Day 12 (with TMZ)
[16] = PAC-1, Cycle 1 Day 12 (with TMZ)/Cycle 1 Day 7 (alone)
[17] = PAC-1, Cycle 1 Day 12 (with TMZ)/Cycle 1 Day 7 (alone), normalized to 500 mg
[18] = 150 mg/m2, TMZ 150 mg/m^2 oral with PAC-1 375 mg/day
[19] = 150 mg/m2, TMZ 150 mg/m^2 oral with PAC-1 500 mg/day
[20] = 150 mg/m2, TMZ 150 mg/m^2 oral with PAC-1 625 mg/day

Which “pathways of hepatic metabolism” value [1] does the source give for `C=CCc1cccc(/C=N/NC(=O)CN2CCN(Cc3ccccc3)CC2)c1O` [PAC-1, procaspase-activating compound-1] here?
Its value is “possible pathways of hepatic metabolism”.

What about the “activity in intracranial models in rodents” value [2] of the same compound?
The value was “promising activity”.

And the “increase in PAC-1 CL/F with dexamethasone co-administration” value ([3]; 375 and 500 mg/day groups)?
Its value is “approximately 18%”.

And the “AUCss,0-τ, geometric mean (geometric CV%)” value (“AUCss,0-τ … (geometric CV%)” below) [3, 10]?
Its value is 23434 (12.0) h*ng/ml.

What about the “CL/F, geometric mean (geometric CV%)” value [3, 10] of the same compound?
The value was 185 (26.6) ml/h/kg.

And the “Cmax, geometric mean (geometric CV%)” value [3, 10]?
The value was 1728 (19.6) ng/ml.

And the “Css-min, geometric mean (geometric CV%)” value [3, 10]?
Its value is 647.8 (11.0) ng/ml.

And the “Tmax, median (range)” value [3, 10]?
Its value is 3.00 (1.98-6.00) h.

And the “V/F, geometric mean (geometric CV%)” value [3, 10]?
Its value is 6.1 (36.1) L/kg.

What about the “AUCss,0-τ … (geometric CV%)” value [3, 11] of the same compound?
Its value is 22519 (13.8) h*ng/ml.

And the “CL/F, geometric mean (geometric CV%)” value [3, 11]?
Its value is 193 (32.9) ml/h/kg.

And the “Cmax, geometric mean (geometric CV%)” value [3, 11]?
The value was 1802 (19.7) ng/ml.

And the “Css-min, geometric mean (geometric CV%)” value [3, 11]?
The value was 525.4 (12.3) ng/ml.

What about the “Tmax, median (range)” value [3, 11] of the same compound?
Its value is 3.00 (1.98 - 9.83) h.

What about the “V/F, geometric mean (geometric CV%)” value [3, 11] of the same compound?
The value was 5.4 (27.3) L/kg.

What about the “t1/2-λ, geometric mean (geometric CV%)” value [3, 11] of the same compound?
Its value is 20.0 (12.0) h.

And the “AUCss,0-τ … (geometric CV%)” value [3, 12]?
Its value is 32823 (28.0) h*ng/ml.

And the “CL/F, geometric mean (geometric CV%)” value [3, 12]?
Its value is 203 (38.1) ml/h/kg.

What about the “Cmax, geometric mean (geometric CV%)” value [3, 12] of the same compound?
Its value is 3026 (34.0) ng/ml.

What about the “Css-min, geometric mean (geometric CV%)” value [3, 12] of the same compound?
The value was 776.8 (27.9) ng/ml.

And the “Tmax, median (range)” value [3, 12]?
Its value is 2.34 (0.50- 5.92) h.

And the “V/F, geometric mean (geometric CV%)” value [3, 12]?
The value was 5.1 (53.0) L/kg.

And the “t1/2-λ, geometric mean (geometric CV%)” value [3, 12]?
Its value is 17.6 (18.9) h.

What about the “AUCss,0-τ … (geometric CV%)” value [3, 13] of the same compound?
Its value is 34274 (13.2) h*ng/ml.

And the “CL/F, geometric mean (geometric CV%)” value [3, 13]?
The value was 194 (26.0) ml/h/kg.

And the “Cmax, geometric mean (geometric CV%)” value [3, 13]?
The value was 2938 (32.2) ng/ml.

And the “Css-min, geometric mean (geometric CV%)” value [3, 13]?
Its value is 770.0 (19.6) ng/ml.

What about the “Tmax, median (range)” value [3, 13] of the same compound?
The value was 2.01 (1.92 - 3.07) h.

What about the “V/F, geometric mean (geometric CV%)” value [3, 13] of the same compound?
The value was 5.0 (40.3) L/kg.

And the “t1/2-λ, geometric mean (geometric CV%)” value [3, 13]?
The value was 17.9 (31.1) h.

What about the “AUCss,0-τ … (geometric CV%)” value [3, 14] of the same compound?
Its value is 24634 (45.2) h*ng/ml.

And the “CL/F, geometric mean (geometric CV%)” value [3, 14]?
The value was 322 (38.0) ml/h/kg.

And the “Cmax, geometric mean (geometric CV%)” value [3, 14]?
Its value is 1876 (47.5) ng/ml.

What about the “Css-min, geometric mean (geometric CV%)” value [3, 14] of the same compound?
The value was 565.9 (47.4) ng/ml.

And the “Tmax, median (range)” value [3, 14]?
Its value is 1.98 (0.82 – 2.00) h.

And the “V/F, geometric mean (geometric CV%)” value [3, 14]?
Its value is 8.7 (40.6) L/kg.

And the “t1/2-λ, geometric mean (geometric CV%)” value [3, 14]?
Its value is 18.7 (42.9) h.

And the “AUCss,0-τ … (geometric CV%)” value [3, 15]?
The value was 21854 (39.7) h*ng/ml.

What about the “CL/F, geometric mean (geometric CV%)” value [3, 15] of the same compound?
The value was 363 (31.2) ml/h/kg.

And the “Cmax, geometric mean (geometric CV%)” value [3, 15]?
Its value is 2124 (57.9) ng/ml.

And the “Css-min, geometric mean (geometric CV%)” value [3, 15]?
The value was 480.0 (40.4) ng/ml.

And the “Tmax, median (range)” value [3, 15]?
Its value is 1.03 (1.00 - 4.17) h.

What about the “V/F, geometric mean (geometric CV%)” value [3, 15] of the same compound?
The value was 9.7 (17.0) L/kg.

And the “t1/2-λ, geometric mean (geometric CV%)” value [3, 15]?
Its value is 18.5 (32.9) h.

And the “PK interactions between PAC-1 and TMZ” value ([3]; PAC-1 375, 500 or 625 mg/day with TMZ 150 mg/m^2)?
Its value is “did not identify PK interactions”.

What about the “CL/F, Geometric Least-Square Mean Ratio (90%CI)” value [3, 16] of the same compound?
The value was 1.07 (0.98, 1.17).

What about the “t1/2-λ, Geometric Least-Square Mean Ratio (90%CI)” value [3, 16] of the same compound?
The value was 1.04 (0.90, 1.22).

And the “AUCss,0-τ, Geometric Least-Square Mean Ratio (90%CI)” value [3, 17]?
Its value is 0.93 (0.85, 1.02) ^†.

What about the “Cmax, Geometric Least-Square Mean Ratio (90%CI)” value [3, 17] of the same compound?
The value was 1.02 (0.85, 1.23) ^†.

What about the “Css-min, Geometric Least-Square Mean Ratio (90%CI)” value [3, 17] of the same compound?
The value was 0.86 (0.80, 0.92) ^†.

What about the “dose proportionality of PAC-1 plasma concentrations” value ([3]; between 375 mg/day and 500 mg/day) of the same compound?
The value was “increased proportionally”.

What about the “PAC-1 plasma concentrations below predicted levels” value ([3]; single subject in the 625 mg group, same without and with TMZ) of the same compound?
Its value is “approximately 70%”.

And the “PAC-1 CL/F” value ([3]; subjects from the 375 and 500 mg/day groups receiving dexamethasone)?
The value was 3.68 mL/min/kg.

What about the “recommended phase 2 dose (RP2D)” value ([4]; oral single agent PAC-1, patients with systemic solid tumors) of the same compound?
Its value is 750 mg/day.

What about the “relationship between PAC-1 dose and AUC” value ([4]; single agent, doses up to 750 mg/day) of the same compound?
Its value is “linear relationship”.

What about the “extraction, elimination and oral bioavailability” value [5] of the same compound?
The value was “high extraction ratio, hepatically eliminated drug with low and variable oral bioavailability”.

And the “responses in canine cancer patients with glioma” value [6]?
Its value is “all treated glioma dogs had responses, including one complete response”.

What about the blood-brain barrier penetration [7] of the same compound?
Its blood-brain barrier penetration is “significantly penetrate the blood-brain barrier”.

And the “activity against human glioma cell lines” value [8]?
Its value is “promising activity”.

And the “substrate of the P-glycoprotein efflux pump” value [9]?
Its value is “not a substrate”.

What does the source list for `Cn1nnc2c(C(N)=O)ncn2c1=O` [temozolomide, reference compound]?
impact of PAC-1 dose on PK parameters of TMZ (mixed effects analyses) ([3]; PAC-1 375, 500, 625 mg/day): did not significantly (p > 0.05) impact any PK parameters of TMZ; V/F, geometric mean (geometric CV%) ([3]; TMZ 150 mg/m^2 oral with PAC-1 375 mg/day): 0.40 (16.7) L/kg; V/F, geometric mean (geometric CV%) ([3]; TMZ 150 mg/m^2 oral with PAC-1 500 mg/day): 0.44 (15.0) L/kg; V/F, geometric mean (geometric CV%) ([3]; TMZ 150 mg/m^2 oral with PAC-1 625 mg/day): 0.44 (15.7) L/kg; AUC(0-inf) [3, 18]: 22800 ng·h/mL; CL/F [3, 18]: 2.52 mL/min/kg; Cmax [3, 18]: 7310 ng/mL; Tmax [3, 18]: 1 h; half-life [3, 18]: 1.86 h; AUC(0-inf) [3, 19]: 23800 ng·h/mL; CL/F [3, 19]: 2.63 mL/min/kg; Cmax [3, 19]: 7750 ng/mL; Tmax [3, 19]: 0.98 h; half-life [3, 19]: 1.93 h; AUC(0-inf) [3, 20]: 23900 ng·h/mL; CL/F [3, 20]: 2.67 mL/min/kg; Cmax [3, 20]: 7630 ng/mL; Tmax [3, 20]: 1 h; half-life [3, 20]: 1.92 h
